In ChEMBL document CHEMBL1240357, “Method for screening compounds that influence virulence gene expression in Staphylococcus aureus” (Antimicrob Agents Chemother, 2010):
The source made the active and inactive calls. The rule behind the calls is not given here.

Assays:
Format in all cases: functional, organism-based
Staphylococcus aureus [1] = experiment: Induction of spa virulent gene expression in Staphylococcus aureus PC203 containing spa::lacZ assessed as color chage at 150 ug/ml at 37 degC in presence of chromogenic beta-galactosidase substrate
Staphylococcus aureus [2] = experiment: Induction of hla virulent gene expression in Staphylococcus aureus PC322 containing hla::lacZ assessed as color chage at 150 ug/ml at 37 degC in presence of chromogenic beta-galactosidase substrate
Staphylococcus aureus [3] = experiment: Induction of hla virulent gene expression in Staphylococcus aureus PC322 containing hla::lacZ assessed as color chage at 150 ug/ml at 37 degC in presence of chromogenic beta-galactosidase substrate and 1 to 50 % glucose solution
Staphylococcus aureus [4] = experiment: Induction of spa virulent gene expression in Staphylococcus aureus PC203 containing spa::lacZ assessed as color chage at 150 ug/ml at 37 degC in presence of chromogenic beta-galactosidase substrate and 1 to 50 % glucose solution
Staphylococcus aureus [5] = experiment: Induction of spa virulent gene expression in Staphylococcus aureus PC203 containing spa::lacZ assessed as color chage at 5 ug/ml at 37 degC in presence of chromogenic beta-galactosidase substrate
Staphylococcus aureus [6] = experiment: Induction of hla virulent gene expression in Staphylococcus aureus PC322 containing hla::lacZ assessed as color chage at 5 ug/ml at 37 degC in presence of chromogenic beta-galactosidase substrate
Staphylococcus aureus [7] = experiment: Induction of hla virulent gene expression in Staphylococcus aureus PC322 containing hla::lacZ assessed as color chage at 5 ug/ml at 37 degC in presence of chromogenic beta-galactosidase substrate and 1 to 50 % glucose solution
Staphylococcus aureus [8] = experiment: Induction of spa virulent gene expression in Staphylococcus aureus PC203 containing spa::lacZ assessed as color chage at 5 ug/ml at 37 degC in presence of chromogenic beta-galactosidase substrate and 1 to 50 % glucose solution

## OC[C@H]1O[C@@H](Oc2c[nH]c3ccc(Br)c(Cl)c23)[C@H](O)[C@@H](O)[C@H]1O
Staphylococcus aureus [1]
  Activity: Active
Staphylococcus aureus [2]
  Activity: Active
Staphylococcus aureus [3]
  Activity: inactive
Staphylococcus aureus [4]
  Activity: inactive

## CC[C@H]1OC(=O)[C@H](C)[C@@H](O[C@H]2C[C@@](C)(OC)[C@@H](O)[C@H](C)O2)[C@H](C)[C@@H](O[C@@H]2O[C@H](C)C[C@H](N(C)C)[C@H]2O)[C@](C)(O)C[C@@H](C)C(=O)[C@H](C)[C@@H](O)[C@]1(C)O
Staphylococcus aureus [5]
  Activity: Active
Staphylococcus aureus [6]
  Activity: Active
Staphylococcus aureus [7]
  Activity: inactive
Staphylococcus aureus [8]
  Activity: inactive
